Results taken from patent US20050148605A1, “Amide derivatives as ABL modulators” (Ambit Biosciences Corporation, priority 2003, published 2005).
pKd: −log10 of the molar value.

Tests used:
[1] = molecular target: T1, ABL1(E274K) (Homo sapiens, UniProt P00519, E255K); assay: Binding constant (Kd) measurement, phage-displayed kinase competition binding assay: ABL1(E274K); conditions: competition with immobilized ATP site ligand
T1 construct: made in house; host or cells: T7 bacteriophage display
From the text: (§1) Binding Constant (Kd) Measurements for Small-Molecule-Kinase Interactions
(§2) The term “ND” represents non-determined values.

[2] = molecular target: T2, ABL1(DKIN) (Homo sapiens, UniProt P00519); assay: Binding constant (Kd) measurement, phage-displayed kinase competition binding assay: ABL1(DKIN); conditions: competition with immobilized ATP site ligand
T2 construct: column label 'AB L1(DKIN)'; fused on or other part: Fused to a T7 bacteriophage particle (phage display)
T2 sequence (P00519 242-493 limits assumed): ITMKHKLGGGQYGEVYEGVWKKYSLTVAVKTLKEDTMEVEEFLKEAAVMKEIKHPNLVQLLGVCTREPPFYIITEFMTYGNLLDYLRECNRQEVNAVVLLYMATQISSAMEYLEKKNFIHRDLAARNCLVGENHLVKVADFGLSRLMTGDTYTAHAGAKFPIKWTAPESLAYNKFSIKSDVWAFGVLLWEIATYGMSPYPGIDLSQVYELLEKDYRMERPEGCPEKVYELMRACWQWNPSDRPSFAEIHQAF
From the text: as §1, §2

T1 sequence (P00519 1-1149 isoform P00519-2 E274K): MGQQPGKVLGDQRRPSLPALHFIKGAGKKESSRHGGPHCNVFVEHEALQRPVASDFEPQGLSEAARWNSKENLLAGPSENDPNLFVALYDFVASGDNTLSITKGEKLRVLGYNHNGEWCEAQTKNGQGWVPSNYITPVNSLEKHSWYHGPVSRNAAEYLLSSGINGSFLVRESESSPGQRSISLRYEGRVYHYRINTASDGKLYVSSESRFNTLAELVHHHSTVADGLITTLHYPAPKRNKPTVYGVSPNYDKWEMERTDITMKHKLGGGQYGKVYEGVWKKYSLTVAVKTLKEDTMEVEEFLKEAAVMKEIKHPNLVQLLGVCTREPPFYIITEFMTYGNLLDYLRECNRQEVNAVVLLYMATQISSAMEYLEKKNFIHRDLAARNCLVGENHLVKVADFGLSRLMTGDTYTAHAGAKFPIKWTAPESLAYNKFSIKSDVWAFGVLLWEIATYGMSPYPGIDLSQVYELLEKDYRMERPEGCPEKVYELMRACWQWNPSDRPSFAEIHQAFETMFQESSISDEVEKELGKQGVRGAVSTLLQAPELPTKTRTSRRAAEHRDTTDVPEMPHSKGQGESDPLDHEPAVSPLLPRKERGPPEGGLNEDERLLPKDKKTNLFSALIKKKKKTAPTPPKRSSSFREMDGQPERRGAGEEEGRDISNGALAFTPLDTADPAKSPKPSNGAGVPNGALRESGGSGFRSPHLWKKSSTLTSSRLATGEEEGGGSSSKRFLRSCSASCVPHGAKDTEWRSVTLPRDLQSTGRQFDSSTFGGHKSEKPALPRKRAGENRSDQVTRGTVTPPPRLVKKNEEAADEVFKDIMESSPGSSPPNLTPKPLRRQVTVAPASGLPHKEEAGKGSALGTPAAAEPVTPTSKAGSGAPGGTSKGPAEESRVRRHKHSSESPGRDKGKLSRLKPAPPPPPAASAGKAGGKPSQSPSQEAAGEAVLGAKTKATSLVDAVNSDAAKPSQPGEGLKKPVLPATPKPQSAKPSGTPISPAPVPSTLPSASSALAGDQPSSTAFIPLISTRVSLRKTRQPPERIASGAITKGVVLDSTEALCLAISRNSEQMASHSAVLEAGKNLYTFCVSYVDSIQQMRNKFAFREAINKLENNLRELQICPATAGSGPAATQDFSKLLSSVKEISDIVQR

Row | Structure (SMILES) | pKd [1] | pKd [2]
1 | O=C(Cc1ccc(OCc2ccccc2)cc1)Nc1nc2cc(Cl)ccc2o1 [Compound B15] | < 5.00 | –
2 | O=C(Cc1ccc(F)cc1)Nc1cc(C2CC2)nn1-c1ccccc1 [Compound E7] | – | < 5.00
